Where a name gives a salt, the structure may show the parent alone.
Molecular target: SERCA2a (Rattus norvegicus, UniProt P11507)
Test: […]-ATP hydrolysis
Assay type: cell-based
Settings: read-out: % Vmax at 500 nmol/L

SERCA2a, sequence (P11507 1-997 isoform P11507-2): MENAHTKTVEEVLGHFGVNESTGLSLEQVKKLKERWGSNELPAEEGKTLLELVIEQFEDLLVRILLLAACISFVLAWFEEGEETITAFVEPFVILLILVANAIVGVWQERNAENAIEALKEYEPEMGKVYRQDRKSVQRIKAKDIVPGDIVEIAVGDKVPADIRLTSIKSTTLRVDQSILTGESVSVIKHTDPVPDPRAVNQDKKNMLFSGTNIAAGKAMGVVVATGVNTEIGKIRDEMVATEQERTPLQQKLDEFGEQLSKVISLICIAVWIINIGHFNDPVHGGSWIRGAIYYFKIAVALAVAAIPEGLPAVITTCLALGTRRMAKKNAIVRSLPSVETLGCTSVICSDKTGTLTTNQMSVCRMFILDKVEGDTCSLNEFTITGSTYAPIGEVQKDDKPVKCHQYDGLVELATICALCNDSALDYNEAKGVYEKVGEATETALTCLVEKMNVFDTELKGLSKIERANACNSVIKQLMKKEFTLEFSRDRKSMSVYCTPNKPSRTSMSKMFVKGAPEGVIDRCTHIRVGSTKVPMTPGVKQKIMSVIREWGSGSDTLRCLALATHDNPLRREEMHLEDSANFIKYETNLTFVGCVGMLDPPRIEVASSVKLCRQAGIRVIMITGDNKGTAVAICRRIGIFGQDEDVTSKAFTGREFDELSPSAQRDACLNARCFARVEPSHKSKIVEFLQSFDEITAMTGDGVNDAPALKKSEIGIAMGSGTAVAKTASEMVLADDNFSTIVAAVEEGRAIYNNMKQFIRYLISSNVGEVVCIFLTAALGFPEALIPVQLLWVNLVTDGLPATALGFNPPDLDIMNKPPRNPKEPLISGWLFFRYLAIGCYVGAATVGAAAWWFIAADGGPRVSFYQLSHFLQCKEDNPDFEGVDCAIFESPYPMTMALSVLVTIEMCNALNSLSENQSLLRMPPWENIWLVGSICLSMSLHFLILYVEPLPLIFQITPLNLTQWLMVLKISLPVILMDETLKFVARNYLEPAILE

C[C@]12CCC(=NOCCN)C[C@@H]1C(=O)C[C@@H]1[C@@H]2CC[C@]2(C)C(=O)CC[C@@H]12 [istaroxime, (E,Z)-3-((2-aminoethoxy)imino)androstane-6,17-dione hydrochloride]
activation at 0.5 µM: 25%
